# According to BindingDB's records for doi:10.1021/bi401354d (Pfizer, 2013):
# pKi: −log10 of the molar value.
# Target: T1, Myeloperoxidase (Homo sapiens, UniProt P05164)
# T1 sequence (P05164 whole entry): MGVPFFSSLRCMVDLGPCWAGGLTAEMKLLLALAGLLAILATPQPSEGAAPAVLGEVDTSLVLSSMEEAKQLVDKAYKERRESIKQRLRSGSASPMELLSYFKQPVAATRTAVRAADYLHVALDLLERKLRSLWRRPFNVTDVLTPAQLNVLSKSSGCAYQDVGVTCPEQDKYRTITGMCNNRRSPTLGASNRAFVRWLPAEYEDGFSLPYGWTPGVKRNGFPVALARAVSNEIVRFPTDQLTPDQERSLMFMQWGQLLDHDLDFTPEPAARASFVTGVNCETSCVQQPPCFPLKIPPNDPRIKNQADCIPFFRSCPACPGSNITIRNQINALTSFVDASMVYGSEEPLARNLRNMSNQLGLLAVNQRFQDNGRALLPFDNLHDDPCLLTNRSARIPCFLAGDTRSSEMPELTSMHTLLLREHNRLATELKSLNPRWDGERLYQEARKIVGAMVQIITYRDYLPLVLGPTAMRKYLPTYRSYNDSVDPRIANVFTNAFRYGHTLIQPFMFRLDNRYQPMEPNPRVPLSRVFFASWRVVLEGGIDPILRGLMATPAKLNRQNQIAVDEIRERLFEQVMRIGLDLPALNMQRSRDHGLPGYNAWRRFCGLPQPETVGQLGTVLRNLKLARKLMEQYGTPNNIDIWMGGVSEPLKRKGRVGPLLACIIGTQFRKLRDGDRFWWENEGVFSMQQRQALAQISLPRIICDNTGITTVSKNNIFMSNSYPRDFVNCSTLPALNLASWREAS
# Experiment: MPO Activity Assay
# Conditions: pH 7.4
# Procedure: Assay mixtures (100 µL) contained 50 mM NaPi (pH 7.4), 150 mM NaCl, 1 mM DTPA, 2% DMSO, the indicated concentrations of H2O2, and Amplex Red. The reactions were initiated by the addition of 100 pM MPO. The fluorescent changes were measured at 530 (excitation) and 580 nm (emission).
structure (smiles),measurement,value
"CCO[C@@H](C)Cn1c(=S)[nH]c(=O)c2[nH]cnc21 [3‐[(2S)‐2‐ethoxypropyl]‐2‐sulfanylidene‐1,9‐ dihydropurin‐6‐one (D)]",pKi,6.37
"CCOC(C)Cn1c(=S)[nH]c(=O)c2[nH]cnc21 (stereo not drawn) [3‐(2‐ethoxypropyl)‐2‐sulfanylidene‐1,9‐ dihydropurin‐6‐one (A)]",pKi,6.38
"CCO[C@H](C)Cn1c(=S)[nH]c(=O)c2[nH]cnc21 [3‐[(2R)‐2‐ethoxypropyl]‐2‐sulfanylidene‐1,9‐ dihydropurin‐6‐one (C)]",pKi,6.26
